Converted amounts (≈) assume the structure as drawn.
Test system: S. aureus ATCC 29213
Assay: In vitro susceptibility test, antimicrobial dilution method (CLSI), MIC
Type: cell-based
Details: Staphylococcus aureus, ATCC29213, read-out: MIC (Minimum Inhibitory Concentration)
Protocol: For all the tests performed, there was a positive control of antifungal activity using fluconazole (for Malassezia) and ceftriaxone (for the bacterial strains) and a negative control (absence of the compounds) wherein correct microbial growth was evaluated.

MIC: 3000 µg/mL (≈ 4.8 mM)
SMILES: C[C@@H]1O[C@@H](O[C@@H]2[C@@H](O)[C@H](OCCc3ccc(O)c(O)c3)O[C@H](CO)[C@H]2OC(=O)/C=C/c2ccc(O)c(O)c2)[C@H](O)[C@H](O)[C@H]1O [Verbascoside, verbascoside]

Source: patent US20170304409A1, “COMPOSITIONS USEFUL FOR THE PREVENTION AND/OR TREATMENT OF INFECTIONS AND INFLAMMATIONS” (ISTITUTO PROFILATTICO E FARMACEUTICO CANDIOLI & C. SPA in …, priority 2014, published 2017)
